How the values were obtained:
Type in all cases: cell-based
[1] = target: T1, human muscarinic M3 receptor (Homo sapiens, UniProt P20309); test: Alphascreen Surefire phospho-ERK1/2 functional assay, M3; conditions: for Emax: CHO cells stably expressing human M3, read-out: % Emax cf. ACh, M3
T1 construct: expressed in transfected cells
Method: (§1) ERK1/2 phosphorylation is a downstream consequence of both Gq/11 and Gi/o protein coupled receptor activation, making it highly suitable for the assessment of M1, M3 (Gq/11 coupled) and M2, M4 receptors (Gi/o coupled), rather than using different assay formats for different receptor subtypes. CHO cells stably expressing the human muscarinic M1, M2, M3 or M4 receptor were plated (25K/well) onto 96-well tissue culture plates in MEM-alpha+10% dialysed FBS. Once adhered, cells were serum-starved overnight. Agonist stimulation was performed by the addition of 5 μL agonist to the cells for 5 min (37° C.). Media was removed and 50 μL of lysis buffer added.

[2] = target: T2, human muscarinic M4 receptor (Homo sapiens, UniProt P08173); test: Alphascreen Surefire phospho-ERK1/2 functional assay, M4; conditions: for Emax: CHO cells stably expressing human M4, read-out: % Emax cf. ACh, M4
T2 construct: expressed in transfected cells
T2 sequence (P08173 1-479): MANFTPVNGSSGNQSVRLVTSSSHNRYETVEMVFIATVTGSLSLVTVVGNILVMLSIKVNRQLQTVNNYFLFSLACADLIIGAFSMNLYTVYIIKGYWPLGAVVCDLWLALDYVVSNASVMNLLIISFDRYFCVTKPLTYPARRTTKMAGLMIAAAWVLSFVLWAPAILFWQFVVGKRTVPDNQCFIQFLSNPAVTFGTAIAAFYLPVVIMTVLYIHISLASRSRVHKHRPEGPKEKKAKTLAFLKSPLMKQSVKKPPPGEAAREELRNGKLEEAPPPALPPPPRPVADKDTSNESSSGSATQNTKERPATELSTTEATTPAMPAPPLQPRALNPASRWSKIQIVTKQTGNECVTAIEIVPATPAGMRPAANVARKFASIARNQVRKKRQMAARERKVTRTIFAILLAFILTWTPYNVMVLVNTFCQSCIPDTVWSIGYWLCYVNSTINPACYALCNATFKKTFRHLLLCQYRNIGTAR
Method: as §1

[3] = target: T3, human muscarinic M2 receptor (Homo sapiens, UniProt P08172); test: Alphascreen Surefire phospho-ERK1/2 functional assay, M2
T3 construct: expressed in transfected cells
T3 sequence (P08172 1-466): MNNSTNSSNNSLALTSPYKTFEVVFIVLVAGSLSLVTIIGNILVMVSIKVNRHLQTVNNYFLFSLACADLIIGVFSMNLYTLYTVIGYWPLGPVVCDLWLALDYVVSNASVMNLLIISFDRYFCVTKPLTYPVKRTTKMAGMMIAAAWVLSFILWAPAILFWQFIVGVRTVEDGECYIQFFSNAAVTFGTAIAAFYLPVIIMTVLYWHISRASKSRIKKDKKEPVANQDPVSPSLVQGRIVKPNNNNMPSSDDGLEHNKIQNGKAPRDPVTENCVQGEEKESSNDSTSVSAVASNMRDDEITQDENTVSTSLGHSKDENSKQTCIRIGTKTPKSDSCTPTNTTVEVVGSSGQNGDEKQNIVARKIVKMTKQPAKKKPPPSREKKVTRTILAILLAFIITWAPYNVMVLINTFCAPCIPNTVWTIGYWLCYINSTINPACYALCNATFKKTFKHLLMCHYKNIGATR
Method: as §1

[4] = target: T4, human muscarinic M1 receptor (Homo sapiens, UniProt P11229); test: Alphascreen Surefire phospho-ERK1/2 functional assay, M1; conditions: CHO cells stably expressing human M1, phospho-ERK1/2
T4 construct: expressed in transfected cells
T4 sequence (P11229 1-460): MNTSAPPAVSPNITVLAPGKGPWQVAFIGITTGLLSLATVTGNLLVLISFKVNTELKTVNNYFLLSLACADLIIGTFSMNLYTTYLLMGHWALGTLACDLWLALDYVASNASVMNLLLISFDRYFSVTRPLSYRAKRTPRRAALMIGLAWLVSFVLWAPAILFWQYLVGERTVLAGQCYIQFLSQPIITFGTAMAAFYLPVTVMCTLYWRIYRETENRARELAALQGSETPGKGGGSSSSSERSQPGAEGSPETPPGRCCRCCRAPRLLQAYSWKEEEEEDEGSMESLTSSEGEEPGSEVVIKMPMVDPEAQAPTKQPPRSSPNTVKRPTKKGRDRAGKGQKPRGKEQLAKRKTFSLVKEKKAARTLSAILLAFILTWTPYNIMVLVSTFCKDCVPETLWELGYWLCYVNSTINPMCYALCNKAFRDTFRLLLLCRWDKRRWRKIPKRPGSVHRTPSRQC
Method: as §1

T1 sequence (P20309 whole entry): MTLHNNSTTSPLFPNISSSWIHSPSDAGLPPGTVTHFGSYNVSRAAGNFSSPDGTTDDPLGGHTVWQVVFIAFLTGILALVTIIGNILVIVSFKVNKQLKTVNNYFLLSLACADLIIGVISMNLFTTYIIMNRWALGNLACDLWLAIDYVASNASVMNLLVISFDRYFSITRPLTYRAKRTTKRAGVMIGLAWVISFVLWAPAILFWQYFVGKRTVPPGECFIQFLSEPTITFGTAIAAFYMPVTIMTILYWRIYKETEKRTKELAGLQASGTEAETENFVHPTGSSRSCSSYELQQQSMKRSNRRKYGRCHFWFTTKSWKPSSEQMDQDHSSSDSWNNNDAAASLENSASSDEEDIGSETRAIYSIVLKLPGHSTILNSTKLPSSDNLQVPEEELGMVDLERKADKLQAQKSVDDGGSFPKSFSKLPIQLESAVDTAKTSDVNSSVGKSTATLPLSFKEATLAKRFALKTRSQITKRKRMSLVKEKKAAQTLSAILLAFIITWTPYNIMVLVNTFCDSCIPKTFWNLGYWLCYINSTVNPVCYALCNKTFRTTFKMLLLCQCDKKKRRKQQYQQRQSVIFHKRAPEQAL

SMILES	Emax [1] [%]	Emax [2] [%]	Emax ([3]; CHO cells stably expressing human M2, read-out: % Emax cf. ACh, M2) [%]	EC50 ([3]; CHO cells stably expressing human M2, read-out: pEC50 M2 (converted)) [µM]	EC50 ([1]; CHO cells stably expressing human M3, read-out: pEC50 M3 (converted)) [µM]	pEC50 M1 [4]	Emax ([4]; read-out: % Emax cf. ACh, M1) [%]	EC50 ([2]; CHO cells stably expressing human M4, read-out: pEC50 M4 (converted)) [µM]
CC(=O)OCC[N+](C)(C)C [Acetylcholine, reference compound]	102	108						
CC(C)(C)NC(=O)C1CCN([C@H]2C[C@H]3CC[C@@H](C2)N3c2nc(C(F)(F)F)no2)CC1.Cl [Example 1-1, N-(tert-butyl)-1-((1R,3r,5S)-8-(3-(trifluoromethyl)-1,2,4-oxadiazol-5-yl)-8-azabicyclo[3.2.1]octan-3-yl)piperidine-4-carboxamide hydrochloride]	3	32	7	> 20	> 20	7.17	92	0.12

Reference: US11999745B2, “Pharmaceutical compounds” (Heptares Therapeutics Limited, priority 2020, dated 2024)
